Experimental data from article PMC8198750, “Synthesis of Novel Halogenated Heterocycles Based on o-Phenylenediamine and Their Interactions with the Catalytic Subunit of Protein Kinase CK2” (Molecules, 2021).

Key:
hCK2α [1] = molecular target: T1, hCK2α (Homo sapiens, UniProt P68400); assay: nanoDSF thermal shift assay (low-volume differential scanning fluorimetry); type: binding; details: 10-fold excess of ligand (1:10 protein–ligand), 2.5 μM protein, relative to apo hCK2α, 2% DMSO, pH 8; read-out: ΔTm
T1 construct: made in house
Protocol: Binding affinities of the newly synthesized compounds towards hCK2α were assessed with the low-volume differential scanning fluorimetry (nanoDSF). The shift of the temperature of thermal denaturation in the presence of 10-fold excess of a particular ligand relative to the apo form of hCK2α (ΔTm) can be used as a semi-qualitative measure of the binding affinity or inhibitory activity.
hCK2α was expressed and purified according to the method described previously. Thermal stability of 1:10 protein–ligand complexes was monitored on Prometheus (Nanotemper Technologies, München, Germany) using PR-C002 Prometheus NT.48 Standard Capillaries using temperature ramp of 20 to 80 °C with 1 °C/min heating rate. Temperature-induced variation in ratio fluorescence intensity at 330 and 350 nm was globally analyzed using the procedure described before. All experiments were performed in 25 mM Tris–HCl (pH 8, 0.5 M NaCl) with 2% (v/v) DMSO. Protein was kept in constant 2.5 μM concentration.

[2] = RP-HPLC chromatographic hydrophobicity index; type: physicochemical; details: C18, 2:1 methanol:20 mM aqueous ammonium formate pH 8; τ = (Tret − T0)/T0
Protocol: RP-HPLC method, a fast and efficient alternative for standard logD determination in octan-1-ol/water system, was used to assess the hydrophobicity of all synthesized compounds. This method has been successfully used in our laboratory for halogenated benzotriazole derivatives, including the evaluation of the effect of hydrophobicity on their binding to the catalytic subunit of protein kinase CK2 [24, 43].
Chromatographic hydrophobicity index (log(τ)) was determined with the reverse phase HPLC (RP-HPLC). Column: Nova-pak® C18 4 μm, 4.6 × 250 mm. Eluent: 2:1 methanol: 20 mM aqueous ammonium formate (pH = 8) (v/v). Flow: 0.7 mL/min. Detector wavelength: 280 nm. The individual retention times (Tret) were converted to a hydrophobicity scale according to the formula τ = (Tret − T0)/T0. where the retention time of unretained solvent (T0) was estimated to 300 s.

hCK2α [3] = molecular target: T1, hCK2α; assay: Inhibitory activity against human CK2α (ADP-Glo kinase assay); type: biochemical; details: inhibitor 1 nM–1 mM, triplicate
Protocol: The inhibitory effect of 8 selected compounds was monitored based on the luminescence measured with the SpectraMax iD3 Multi-Mode Microplate Reader (Molecular Devices, San Jose, CA, USA), using the previously described method with the aid of ADP-Glo kinase assay (Promega, Walldorf, Germany). Inhibitor concentration varied in the range of 1 nM–1 mM (see Supplementary Figure S38). Each experiment was repeated in triplicate and IC50 values were further estimated globally using the sigmoidal dose-response equation implemented in Origin 9.4 package (www.originlab.com, upgraded 20.07.27).

[4] = system: epidermoid carcinoma A-431; assay: MTT cell viability assay, A-431; type: cell-based; details: Homo sapiens, 72 h
Excerpt: (§1) The following human cell lines were used in this study: (i) epidermoid carcinoma A-431 (ATCC® CRL-1555), (ii) colorectal carcinoma HCT116 (ATCC® CCL-247), (iii) colorectal carcinoma HCT116p53^−/−, and (iv) normal fibroblasts BJ (ATCC® CRL-2522). The HCT116p53^−/− cell line was a kind gift from professor Bert Vogelstein (John Hopkin’s University, Baltimore, MD, USA). The remaining cell lines were purchased from ATCC (Manassas, VA, USA) or Sigma Aldrich by Merck (Darmstadt, Germany).
(§2) Cells were cultured in Dulbecco’s modified Eagle’s or Roswell Park Memorial Institute (RPMI)-1640 medium supplemented with 10% or 15% fetal bovine serum (Gibco by Thermo Fisher Scientific, Waltham, MA, USA) under standard culture conditions (37 °C, 5% CO2) in a humidified incubator with atmospheric oxygen.
(§3) The viability of cells was assayed by measuring the conversion of MTT (3-(4,5-dimethylthiazol-2-yl)-2,5-diphenyltetrazolium bromide) to the formazan (the rate of this reaction is proportional to the number of surviving cells). Cells were seeded in a 96-well plate at a density of 1500–2500 cells per well, 24 h before treatment. Treatment with tested compounds and cisplatin (0.25–160 µM) was performed for 72 h. MTT stock solution (Sigma-Aldrich) was added at the final concentration 0.5 mg/mL. After 2 h of incubation at 37 °C, water-insoluble formazan was dissolved in a lysis buffer containing 20% SDS, 50% DMF, 2.5% hydrochloric acid, and 2.5% acetic acid. Optical densities were measured at 570 nm using a scanning multi-well spectrophotometer ([…] Detection Platform; Beckman Coulter, Brea, CA, USA).

normal fibroblasts BJ = assay: MTT cell viability assay, BJ; type: cell-based, human; details: Homo sapiens, Fibroblast; MTT, 72 h
Excerpt: as §1, §2, §3

[5] = system: colorectal carcinoma HCT116; assay: MTT cell viability assay, HCT116; type: cell-based; details: Homo sapiens, HCT-116, 72 h, read-out: IC50 HTC116
Excerpt: as §1, §2, §3

[6] = system: colorectal carcinoma HCT116p53−/−; assay: MTT cell viability assay, HCT116p53−/−; type: cell-based; details: Homo sapiens, 72 h
Excerpt: as §1, §2, §3

[7] = system: phytohemagglutinin-stimulated normal human lymphocytes; set-up: method as in PMID 12660022; details: cited from earlier work
MCF-7 (breast carcinoma) = system: MCF-7 (breast carcinoma); set-up: method as in PMID 12660022; details: cited from earlier work
[8] = system: PC-3 (prostate carcinoma); set-up: method as in PMID 12660022; details: cited from earlier work
CK2 = details: read-out: IC50 against CK2 / inhibitory activity; cited from earlier work
[9] = system: A-431, HCT116, HCT116p53−/−, BJ; assay: MTT cell viability, reference cell lines as a whole; type: cell-based; details: Homo sapiens; viability tests, cell line not specified
Excerpt: as §1, §2
as §3, with “MTT stock solution (Sigma-Aldrich) was added at the final concentration 0.5 mg/mL. After 2 h of incubation at 37 °C, water-insoluble formazan was dissolved in a lysis buffer containing 20% SDS, 50% DMF, 2.5% hydrochloric acid, and 2.5% acetic acid.” left out

T1 sequence (P68400 whole entry): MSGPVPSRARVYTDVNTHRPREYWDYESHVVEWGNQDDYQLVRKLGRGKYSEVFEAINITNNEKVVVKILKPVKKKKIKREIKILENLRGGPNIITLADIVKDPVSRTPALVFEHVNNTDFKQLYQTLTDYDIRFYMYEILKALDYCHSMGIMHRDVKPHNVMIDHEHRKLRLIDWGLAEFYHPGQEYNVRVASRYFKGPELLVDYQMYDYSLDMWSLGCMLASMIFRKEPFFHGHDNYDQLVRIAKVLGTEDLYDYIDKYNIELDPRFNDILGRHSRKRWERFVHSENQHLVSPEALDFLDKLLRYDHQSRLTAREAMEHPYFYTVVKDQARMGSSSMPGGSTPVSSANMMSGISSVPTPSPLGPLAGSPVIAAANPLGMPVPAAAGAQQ

ΔTm at 25 µM (hCK2α [1]) [°C] | log(τ) HPLC-derived hydrophobicity index [2] | IC50 (hCK2α [3]) [µM] | IC50 [4] [µM] | IC50 [5] [µM] | IC50 [6] [µM] | Compound | IC50 (normal fibroblasts BJ) [µM] | IC80 [7] [µM] | IC80 (MCF-7 (breast carcinoma)) [µM] | IC80 [8] [µM] | IC50 (CK2) [µM] | IC50 [9] [µM]
2.4 ± 0.1 | 0.310 | 15 ± 3 | 13 ± 2 | 10 ± 2 | 12 ± 2 | FC(F)(F)c1nc2cc(Br)c(Br)cc2[nH]1 [Compound 3d, 5,6-dibromo-2-trifluoromethylo-1H-benzimidazole] | 55 ± 6 | 8.7 | < 3 | < 3 | 28 | –
4.1 ± 0.1 | −0.117 | 2 ± 1 | 94 ± 14 | 41 ± 4 | 70 ± 10 | Oc1nc2cc(I)c(I)cc2nc1O [Compound 7e] | 128 ± 13 | – | – | – | – | ~100
